In ChEMBL document CHEMBL2401618 (Eur J Med Chem, 2013):

Tests used:
[1] = system: Leishmania donovani; assay: Leishmanicidal activity against promastigote stage of Leishmania donovani LV9 assessed as cell viability by MTT assay; format: functional, organism-based
[2] = system: Plasmodium falciparum; assay: Antiplasmodial activity against chloroquine-resistant Plasmodium falciparum FcB1/Columbia infected in human erythrocytes assessed as parasite growth inhibition at 1 ug/ml after 24 hrs by [3H]-hypoxanthine incorporation assay relative to control; format: functional; conditions: read-out: GI
[3] = system: Plasmodium falciparum; assay: Antiplasmodial activity against chloroquine-resistant Plasmodium falciparum FcB1/Columbia infected in human erythrocytes assessed as parasite growth inhibition at 10 ug/ml after 24 hrs by [3H]-hypoxanthine incorporation assay relative to control; format: functional; conditions: read-out: GI
[4] = system: Trypanosoma brucei brucei; assay: Antitrypanosomal activity against bloodstream stage of Trypanosoma brucei brucei 93 assessed as parasite growth inhibition at 1 ug/ml after 72 hrs by resazurin reduction assay relative to control; format: functional; conditions: Trypanosoma brucei, 93, 72 h; read-out: GI
[5] = system: Trypanosoma brucei brucei; assay: Antitrypanosomal activity against bloodstream stage of Trypanosoma brucei brucei 93 assessed as parasite growth inhibition at 10 ug/ml after 72 hrs by resazurin reduction assay relative to control; format: functional; conditions: Trypanosoma brucei, 93, 72 h; read-out: GI
[6] = system: Trypanosoma brucei brucei; assay: Antitrypanosomal activity against bloodstream stage of Trypanosoma brucei brucei 93 assessed as parasite growth inhibition at 50 ug/ml after 72 hrs by resazurin reduction assay relative to control; format: functional; conditions: Trypanosoma brucei, 93, 72 h; read-out: GI
[7] = system: Plasmodium falciparum; assay: Antiplasmodial activity against chloroquine-resistant Plasmodium falciparum FcB1/Columbia infected in human erythrocytes assessed as parasite growth inhibition at 50 ug/ml after 24 hrs by [3H]-hypoxanthine incorporation assay relative to control; format: functional; conditions: read-out: GI
[8] = system: Vero; assay: Cytotoxicity against african green monkey Vero cells assessed as growth inhibition after 72 hrs by MTS assay; format: cell-based; conditions: Chlorocebus sabaeus
[9] = Safety index, ratio of IC50 for african green monkey Vero cells to IC50 for promastigote stage of Leishmania donovani LV9; format: toxicity, cell-based; conditions: read-out: Ratio IC50
[10] = Safety index, ratio of IC50 for african green monkey Vero cells to IC50 for chloroquine-resistant Plasmodium falciparum FcB1/Columbia infected in human erythrocytes; format: toxicity, cell-based; conditions: read-out: Ratio IC50
[11] = system: Plasmodium falciparum; assay: Antiplasmodial activity against chloroquine-resistant Plasmodium falciparum FcB1/Columbia infected in human erythrocytes assessed as parasite growth inhibition after 24 hrs by [3H]-hypoxanthine incorporation assay; format: functional, organism-based
[12] = Safety index, ratio of IC50 for african green monkey Vero cells to IC50 for bloodstream stage of Trypanosoma brucei brucei 93; format: toxicity, cell-based; conditions: read-out: Ratio IC50
[13] = system: Trypanosoma brucei brucei; assay: Antitrypanosomal activity against bloodstream stage of Trypanosoma brucei brucei 93 assessed as parasite growth inhibition after 72 hrs by resazurin reduction assay; format: functional, organism-based; conditions: Trypanosoma brucei, 93, 72 h

SMILES	IC50 [1]	inhibition of growth at 1 µg/mL [2]	inhibition of growth at 10 µg/mL [3]	inhibition of growth at 1 µg/mL [4]	inhibition of growth at 10 µg/mL [5]	inhibition of growth at 50 µg/mL [6]	inhibition of growth at 50 µg/mL [7]	IC50 [8]	selectivity ratio [9]	selectivity ratio [10]	IC50 [11]	selectivity ratio [12]	IC50 [13]
C#CCOc1ccc(C(=O)C2=C(O)[C@]3(CC=C(C)C)C[C@H](CC=C(C)C)[C@@](C)(CCC=C(C)C)[C@](CC=C(C)C)(C2=O)C3=O)cc1O [14-O-PROPARGYL-GUTTIFERONE A]	18 µM	6.95%	49.4%	20.9%	96%	92.1%	99.5%	–	–	–	–	–	–
C=CCOc1ccc(C(=O)C2=C(O)[C@]3(CC=C(C)C)C[C@H](CC=C(C)C)[C@@](C)(CCC=C(C)C)[C@](CC=C(C)C)(C2=O)C3=O)cc1O [14-O-ALLYL-GUTTIFERONE A]	15.7 µM	0.83%	11%	20.3%	95.1%	92.6%	99.5%	–	–	–	–	–	–
CCN(CC)CCCC(C)Nc1ccnc2cc(Cl)ccc12 (stereo not given) [CHLOROQUINE]	–	–	–	–	–	–	–	21 µM	–	–	–	–	–
C[C@@H]1[C@H](O)[C@@H](C)/C=C/C=C/C=C/C=C/C=C/C=C/C=C/[C@H](O[C@@H]2O[C@H](C)[C@@H](O)[C@H](N)[C@@H]2O)C[C@@H]2O[C@](O)(C[C@@H](O)C[C@@H](O)[C@H](O)CC[C@@H](O)C[C@@H](O)CC(=O)O[C@H]1C)C[C@H](O)[C@H]2C(=O)O [AMPHOTERICIN B]	0.03 µM	–	–	–	–	–	–	0.33 µM	11	–	–	–	–
COCOc1ccc(C(=O)C2=C(O)[C@]3(CC=C(C)C)C[C@H](CC=C(C)C)[C@@](C)(CCC=C(C)C)[C@](CC=C(C)C)(C2=O)C3=O)cc1O [14-O-METHOXYMETHYL-GUTTIFERONE A]	14.6 µM	10.8%	74.8%	13.2%	96.3%	92.5%	99.6%	13 µM	0.9	2.7	4.84 µM	–	–
CC(C)=CCC[C@]1(C)[C@@H](CC=C(C)C)C[C@]2(CC=C(C)C)C(=O)[C@@]1(CC=C(C)C)C(=O)C(C(=O)c1ccc(OCc3ccccc3)c(OCc3ccccc3)c1)=C2O	> 100 µM	7.07%	38.6%	32.8%	94.8%	94.9%	99.1%	32.6 µM	< 0.3	–	–	10.1	3.23 µM
CCOc1ccc(C(=O)C2=C(O)[C@]3(CC=C(C)C)C[C@H](CC=C(C)C)[C@@](C)(CCC=C(C)C)[C@](CC=C(C)C)(C2=O)C3=O)cc1O [14-O-ETHYL-GUTTIFERONE A]	16.2 µM	14.9%	28.2%	15.8%	94.7%	93%	99.7%	–	–	–	–	–	–
CC(C)=CCC[C@]1(C)[C@@H](CC=C(C)C)C[C@]2(CC=C(C)C)C(=O)[C@@]1(CC=C(C)C)C(=O)C(C(=O)c1ccc(OCCC3OCCO3)c(O)c1)=C2O [14-O-2-ETHYL-1,3-DIOXOLANE-GUTTIFERONE A]	22.2 µM	15.3%	49.1%	8.18%	96.4%	94.9%	99.6%	–	–	–	–	–	–
CC(C)=CCC[C@]1(C)[C@@H](CC=C(C)C)C[C@]2(CC=C(C)C)C(=O)[C@@]1(CC=C(C)C)C(=O)C(C(=O)c1ccc(OC(C)C)c(O)c1)=C2O [14-O-ISOPROPYL-GUTTIFERONE A]	18 µM	14.7%	25.6%	15.4%	95.7%	94.4%	99.8%	–	–	–	–	–	–
COc1ccc(C(=O)C2=C(O)[C@]3(CC=C(C)C)C[C@H](CC=C(C)C)[C@@](C)(CCC=C(C)C)[C@](CC=C(C)C)(C2=O)C3=O)cc1OC	12.2 µM	13.8%	59.2%	17.7%	96.3%	94%	99.3%	21.8 µM	1.8	–	–	–	–
COCOc1ccc(C(=O)C2=C(O)[C@]3(CC=C(C)C)C[C@H](CC=C(C)C)[C@@](C)(CCC=C(C)C)[C@](CC=C(C)C)(C2=O)C3=O)cc1OCOC	23.3 µM	7.94%	20.9%	6.82%	95.5%	93.2%	99.5%	–	–	–	–	–	–
CCCCCCCCCCCCCCCCOP(=O)([O-])OCC[N+](C)(C)C [MILTEFOSINE]	16.2 µM	–	–	–	–	–	–	65 µM	4	–	–	–	–
CCCOc1ccc(C(=O)C2=C(O)[C@]3(CC=C(C)C)C[C@H](CC=C(C)C)[C@@](C)(CCC=C(C)C)[C@](CC=C(C)C)(C2=O)C3=O)cc1O [14-O-PROPYL-GUTTIFERONE A]	20.7 µM	2.36%	13.4%	5.33%	94.6%	94.2%	99.6%	–	–	–	–	–	–
COc1ccc([N+](=O)[O-])cc1COc1ccc(C(=O)C2=C(O)[C@]3(CC=C(C)C)C[C@H](CC=C(C)C)[C@@](C)(CCC=C(C)C)[C@](CC=C(C)C)(C2=O)C3=O)cc1OCc1cc([N+](=O)[O-])ccc1OC	> 100 µM	13.7%	20.1%	9.11%	51.9%	93%	79.1%	–	–	–	–	–	–
CC(C)=CCC[C@]1(C)[C@@H](CC=C(C)C)C[C@]2(CC=C(C)C)C(=O)[C@@]1(CC=C(C)C)C(=O)C(C(=O)c1ccc(OC(=O)C=C(C)C)c(OC(=O)C=C(C)C)c1)=C2O	28.9 µM	3.6%	31.6%	10.5%	92%	96.1%	94.9%	–	–	–	–	–	–
CC(C)=CCC[C@]1(C)[C@@H](CC=C(C)C)C[C@]2(CC=C(C)C)C(=O)[C@@]1(CC=C(C)C)C(=O)C(C(=O)c1ccc(OCc3ccccc3)c(O)c1)=C2O [14-O-BENZYL-GUTTIFERONE A]	22.4 µM	16.1%	49%	23.6%	96%	95%	99.1%	–	–	–	–	–	–
COc1ccc([N+](=O)[O-])cc1COc1ccc(C(=O)C2=C(O)[C@]3(CC=C(C)C)C[C@H](CC=C(C)C)[C@@](C)(CCC=C(C)C)[C@](CC=C(C)C)(C2=O)C3=O)cc1O [14-O-2-METHOXY-5-NITROBENZYL-GUTTIFERONE A]	> 100 µM	6.06%	14.6%	8.4%	88.9%	96.1%	97.4%	–	–	–	–	–	–
